{"source": "patent US11414424B2", "about": "“Cardiac sarcomere inhibitors” (Cytokinetics, Inc., priority 2018, dated 2022)", "data": [{"system": "bovine cardiac myofibrils", "experiment": "Myofibril assay: PK/LDH-coupled steady-state ATPase activity of skinned bovine cardiac myofibrils", "assay_type": "biochemical", "settings": "Ca2+ activating to 75% of maximal rate", "procedure": "(§1) To evaluate the effect of compounds on the ATPase activity of full-length cardiac myosin in the context of the native sarcomere, skinned myofibril assays were performed. Bovine cardiac myofibrils were obtained by homogenizing bovine cardiac left ventricular tissue in the presence of a detergent such as triton X-100. Such treatment removes membranes and a majority of the soluble cytoplasmic proteins but leaves intact the cardiac sarcomeric acto-myosin apparatus. Myofibril preparations retain the ability to hydrolyze ATP in a Ca^2+ regulated manner. ATPase activities of such myofibril preparations in the presence and absence of compounds were assayed at Ca^2+ concentrations activating to a defined fraction of the maximal rate (i.e., […], 75%). Small molecule agents were assessed for their ability to inhibit the steady-state ATPase activity of bovine cardiac myofibrils using pyruvate kinase and lactate dehydrogenase (PK/LDH)-coupled enzyme system. This assay regenerates myosin-produced ADP into ATP by oxidizing NADH, producing an absorbance change at 340 nm. Prior to testing small molecule agents, the bovine cardiac myofibrils were assessed for their calcium responsiveness and the calcium concentration that achieves either a 50% (pCa50) or 75% (pCa75) activation of the myofibril system was chosen as the final condition for assessing the inhibitory activity of the small molecule agents. All enzymatic activity was measured in a buffered solution containing 12 mM PIPES (piperazine-N,N′-bis(2-ethanesulfonic acid), 2 mM magnesium chloride at pH 6.8 (PM 12 buffer). Final assay conditions were 1 mg/mL of bovine cardiac myofibrils, 4 U/mL pyruvate kinase, 6 U/mL lactate dehydrogenase, 50 μM ATP, 0.1 mg/mL BSA (bovine serum albumin), 10 ppm antifoam, 1 mM DTT, 0.5 mM NADH, 1.5 mM PEP, 0.6 mM EGTA, and an amount of CaCl2 sufficient to achieve either 50% or 75% activation of the myofibril ATPase activity. Results for compounds tested are provided in Table A. Compounds tested were prepared in accordance with the synthetic procedures described herein.", "units": {"CDMF75 IC15": "nM"}, "values": [{"smiles": "O=C1C(C2CC(O)C2)N(Cc2ccc(F)cc2)C(=O)CN1c1ccc(Cl)cc1F", "note": "(single isomer, unassigned) [Compound 866A, 1-(4-chloro-2-fluorophenyl)-4-(4-fluorobenzyl)-3-(3-hydroxycyclobutyl)piperazine-2,5-dione]", "CDMF75 IC15": 4400}, {"smiles": "O=C1C(C2CC(O)C2)N(Cc2ccc(F)cc2)C(=O)CN1c1ccc(Cl)cc1F", "note": "(single isomer, unassigned) [Compound 866B, 1-(4-chloro-2-fluorophenyl)-4-(4-fluorobenzyl)-3-(3-hydroxycyclobutyl)piperazine-2,5-dione]", "CDMF75 IC15": ">39000"}, {"smiles": "O=C1C(C2CC(O)C2)N(Cc2ccc(F)cc2)C(=O)CN1c1ccc(Cl)cc1F", "note": "(single isomer, unassigned) [Compound 866C, 1-(4-chloro-2-fluorophenyl)-4-(4-fluorobenzyl)-3-(3-hydroxycyclobutyl)piperazine-2,5-dione]", "CDMF75 IC15": 2300}, {"smiles": "O=C1C(C2CC(O)C2)N(Cc2ccc(F)cc2)C(=O)CN1c1ccc(Cl)cc1F", "note": "(single isomer, unassigned) [Compound 866D, 1-(4-chloro-2-fluorophenyl)-4-(4-fluorobenzyl)-3-(3-hydroxycyclobutyl)piperazine-2,5-dione]", "CDMF75 IC15": ">39000"}, {"smiles": "NC(=O)[C@H]1C[C@]2(C1)C(=O)N(c1ncc(Cl)cc1F)CC(=O)N2Cc1ccc(C(F)F)cc1", "note": "(single isomer, unassigned) [Compound 875A, 8-(5-chloro-3-fluoropyridin-2-yl)-5-(4-(difluoromethyl)benzyl)-6,9-dioxo-5,8-diazaspiro[3.5]nonane-2-carboxamide]", "CDMF75 IC15": 2200}, {"smiles": "NC(=O)[C@H]1C[C@]2(C1)C(=O)N(c1ncc(Cl)cc1F)CC(=O)N2Cc1ccc(C(F)F)cc1", "note": "(single isomer, unassigned) [Compound 875B, 8-(5-chloro-3-fluoropyridin-2-yl)-5-(4-(difluoromethyl)benzyl)-6,9-dioxo-5,8-diazaspiro[3.5]nonane-2-carboxamide]", "CDMF75 IC15": 3200}, {"smiles": "N#Cc1ccc(N2CC(=O)N(Cc3ccc(Cl)cc3)C3(CCN(C(=O)C4COC4)C3)C2=O)c(F)c1", "note": "(stereo in doubt) [Compound 210, (S)-4-(6-(4-chlorobenzyl)-2-(oxetane-3-carbonyl)-7,10-dioxo-2,6,9-triazaspiro[4.5]decan-9-yl)-3-fluorobenzonitrile]", "CDMF75 IC15": 1700}, {"smiles": "N#Cc1ccc(N2CC(=O)N(Cc3ccc(Cl)cc3)C3(CCN(C(=O)C4CCC4)C3)C2=O)c(F)c1", "note": "(stereo in doubt) [Compound 212, (S)-4-(6-(4-chlorobenzyl)-2-(cyclobutanecarbonyl)-7,10-dioxo-2,6,9-triazaspiro[4.5]decan-9-yl)-3-fluorobenzonitrile]", "CDMF75 IC15": 900}, {"smiles": "N#Cc1ccc(N2CC(=O)N(Cc3ccc(Cl)cc3)C3(CCN(C(=O)C4CC4)C3)C2=O)c(F)c1", "note": "(stereo in doubt) [Compound 213, (S)-4-(6-(4-chlorobenzyl)-2-(cyclopropanecarbonyl)-7,10-dioxo-2,6,9-triazaspiro[4.5]decan-9-yl)-3-fluorobenzonitrile]", "CDMF75 IC15": 400}, {"smiles": "N#Cc1ccc(N2CC(=O)N(Cc3ccc(C(F)(F)F)cc3)C3(CCN(C=O)C3)C2=O)c(F)c1", "note": "(stereo in doubt) [Compound 222, (S)-3-fluoro-4-(2-formyl-7,10-dioxo-6-(4-(trifluoromethyl)benzyl)-2,6,9-triazaspiro[4.5]decan-9-yl)benzonitrile]", "CDMF75 IC15": 700}, {"smiles": "CC(C)N1CC(=O)N(Cc2ccc(C(F)(F)F)cc2)C2(CCN(C(=O)NC3CCC3)C2)C1=O", "note": "(stereo not drawn) [Compound 1, N-cyclobutyl-9-isopropyl-7,10-dioxo-6-(4-(trifluoromethyl)benzyl)-2,6,9-triazaspiro[4.5]-decane-2-carboxamide]", "CDMF75 IC15": 9500}, {"smiles": "CC(C)N1CC(=O)N(Cc2ccc(Cl)cc2)C2(CN(c3ccccc3)C2)C1=O", "note": "[Compound 2, 5-(4-chlorobenzyl)-8-isopropyl-2-phenyl-2,5,8-triazaspiro[3.5]nonane-6,9-dione]", "CDMF75 IC15": 1800}, {"smiles": "CC(C)N1CC(=O)N(Cc2ccc(Cl)cc2)C2(CN(c3ccc(F)cc3)C2)C1=O", "note": "[Compound 3, 5-(4-chlorobenzyl)-2-(4-fluorophenyl)-8-isopropyl-2,5,8-triazaspiro[3.5]-nonane-6,9-dione]", "CDMF75 IC15": 1700}, {"smiles": "CC(C)N1CC(=O)N(Cc2ccc(Cl)cc2)C2(CN(c3ccc(Cl)cc3)C2)C1=O", "note": "[Compound 4, 5-(4-chlorobenzyl)-2-(4-chlorophenyl)-8-isopropyl-2,5,8-triazaspiro[3.5]-nonane-6,9-dione]", "CDMF75 IC15": 2500}, {"smiles": "CC(C)N1CC(=O)N(Cc2ccc(Cl)cc2)C2(CN(c3cccc(Cl)c3)C2)C1=O", "note": "[Compound 5, 5-(4-chlorobenzyl)-2-(3-chlorophenyl)-8-isopropyl-2,5,8-triazaspiro[3.5]-nonane-6,9-dione]", "CDMF75 IC15": 1900}, {"smiles": "CC(C)N1CC(=O)N(Cc2ccc(Cl)cc2)C2(CN(c3ccccn3)C2)C1=O", "note": "[Compound 6, 5-(4-chlorobenzyl)-8-isopropyl-2-(pyridin-2-yl)-2,5,8-triazaspiro[3.5]-nonane-6,9-dione]", "CDMF75 IC15": 900}, {"smiles": "CC(C)N1CC(=O)N(Cc2ccc(Cl)cc2)C2(CN(c3cccnc3)C2)C1=O", "note": "[Compound 7, 5-(4-chlorobenzyl)-8-isopropyl-2-(pyridin-3-yl)-2,5,8-triazaspiro[3.5]-nonane-6,9-dione]", "CDMF75 IC15": 1900}, {"smiles": "CC(C)N1CC(=O)N(Cc2ccc(Cl)cc2)C2(CN(c3ccncc3)C2)C1=O", "note": "[Compound 8, 5-(4-chlorobenzyl)-8-isopropyl-2-(pyridin-4-yl)-2,5,8-triazaspiro[3.5]-nonane-6,9-dione]", "CDMF75 IC15": 3300}, {"smiles": "Cc1ccc(N2CC3(C2)C(=O)N(C(C)C)CC(=O)N3Cc2ccc(Cl)cc2)nc1", "note": "[Compound 9, 5-(4-chlorobenzyl)-8-isopropyl-2-(5-methyl-pyridin-2-yl)-2,5,8-triazaspiro[3.5]nonane-6,9-dione]", "CDMF75 IC15": 2400}, {"smiles": "Cc1cc(N2CC3(C2)C(=O)N(C(C)C)CC(=O)N3Cc2ccc(Cl)cc2)ccn1", "note": "[Compound 10, 5-(4-chlorobenzyl)-8-isopropyl-2-(2-methyl-pyridin-4-yl)-2,5,8-triazaspiro[3.5]nonane-6,9-dione]", "CDMF75 IC15": 5200}, {"smiles": "CC(C)N1CC(=O)N(Cc2ccc(Cl)cc2)C2(CN(c3ncccn3)C2)C1=O", "note": "[Compound 11, 5-(4-chlorobenzyl)-8-isopropyl-2-(pyrimidin-2-yl)-2,5,8-triazaspiro-[3.5]nonane-6,9-dione]", "CDMF75 IC15": 17400}, {"smiles": "CC(C)N1CC(=O)N(Cc2ccc(Cl)cc2)C2(CN(c3cnccn3)C2)C1=O", "note": "[Compound 12, 5-(4-chlorobenzyl)-8-isopropyl-2-(pyrazin-2-yl)-2,5,8-triazaspiro-[3.5]nonane-6,9-dione]", "CDMF75 IC15": 6600}, {"smiles": "Cc1ncccc1N1CC2(C1)C(=O)N(C(C)C)CC(=O)N2Cc1ccc(Cl)cc1", "note": "[Compound 13, 5-(4-chlorobenzyl)-8-isopropyl-2-(2-methyl-pyridin-3-yl)-2,5,8-triazaspiro[3.5]nonane-6,9-dione]", "CDMF75 IC15": 7100}]}, {"system": "bovine cardiac myofibrils", "experiment": "Myofibril assay: PK/LDH-coupled steady-state ATPase activity of skinned bovine cardiac myofibrils", "assay_type": "biochemical", "settings": "Ca2+ activating to 75% of maximal rate, listed as 838A", "procedure": "as §1", "units": {"CDMF75 IC15": "nM"}, "values": [{"smiles": "O=C1C(C23CC(O)(C2)C3)N(Cc2ccc(C(F)(F)F)cc2)C(=O)CN1c1ncc(Cl)cc1F", "note": "(single isomer, unassigned) [Enantiomer 838A, 1-(5-chloro-3-fluoropyridin-2-yl)-3-(3-hydroxybicyclo[1.1.1]pentan-1-yl)-4-(4-(trifluoromethyl)benzyl)piperazine-2,5-dione]", "CDMF75 IC15": 2300}]}, {"system": "bovine cardiac myofibrils", "experiment": "Myofibril assay: PK/LDH-coupled steady-state ATPase activity of skinned bovine cardiac myofibrils", "assay_type": "biochemical", "settings": "Ca2+ activating to 75% of maximal rate, listed as 838B", "procedure": "as §1", "units": {"CDMF75 IC15": "nM"}, "values": [{"smiles": "O=C1C(C23CC(O)(C2)C3)N(Cc2ccc(C(F)(F)F)cc2)C(=O)CN1c1ncc(Cl)cc1F", "note": "(single isomer, unassigned) [Enantiomer 838B, 1-(5-chloro-3-fluoropyridin-2-yl)-3-(3-hydroxybicyclo[1.1.1]pentan-1-yl)-4-(4-(trifluoromethyl)benzyl)piperazine-2,5-dione]", "CDMF75 IC15": ">39000"}]}, {"system": "bovine cardiac myofibrils", "experiment": "Myofibril assay: PK/LDH-coupled steady-state ATPase activity of skinned bovine cardiac myofibrils", "assay_type": "biochemical", "settings": "Ca2+ activating to 75% of maximal rate, listed as 867A", "procedure": "as §1", "units": {"CDMF75 IC15": "nM"}, "values": [{"smiles": "O=C1CN(c2ccc(Cl)cc2F)C(=O)C2(CC(O)C2)N1Cc1ccc(F)cc1", "note": "(single isomer, unassigned) [Diastereomer 867A, 8-(4-chloro-2-fluorophenyl)-5-(4-fluorobenzyl)-2-hydroxy-5,8-diazaspiro[3.5]nonane-6,9-dione]", "CDMF75 IC15": 2100}]}, {"system": "bovine cardiac myofibrils", "experiment": "Myofibril assay: PK/LDH-coupled steady-state ATPase activity of skinned bovine cardiac myofibrils", "assay_type": "biochemical", "settings": "Ca2+ activating to 75% of maximal rate, listed as 867B", "procedure": "as §1", "units": {"CDMF75 IC15": "nM"}, "values": [{"smiles": "O=C1CN(c2ccc(Cl)cc2F)C(=O)C2(CC(O)C2)N1Cc1ccc(F)cc1", "note": "(single isomer, unassigned) [Diastereomer 867B, 8-(4-chloro-2-fluorophenyl)-5-(4-fluorobenzyl)-2-hydroxy-5,8-diazaspiro[3.5]nonane-6,9-dione]", "CDMF75 IC15": 1700}]}]}
